# Measurements from patent publication US12629415B2, “Vaccine adjuvants” (THE PROVOST, FELLOWS, FOUNDATION SCHOLARS, AND THE OTHER …, priority 2018, dated 2026).
# “Also recorded” adds a separate entry of the source.
# How the values were obtained:
# bovine PBMCs [1] = experiment: Western blot of pro-IL-1β in bovine PBMC lysates; format: cell-based, cattle
# Description: Supernatants were collected after 24 hours and IL-1β was detected by ELISA. Human PBMCs were stimulated for 24 hours with polydA:dT (5 μg/ml, 2 μg/ml or 1 μg/ml) or alum (50 μg/ml) alone or with LPS (100 pg/ml) (C & D). Supernatants were collected and IL-1β was detected by ELISA. […] Cell lysates were harvested and pro-IL-1β was detected by western blot. PBMCs were stimulated with media or polydA:dT (1 μg/ml) for 6 hours. Cells were lysed and RNA was harvested and used for analysis by RT-PCR (F). Results are mean+/− SEM for 6 calves tested individually in triplicate. For human analysis, results are mean+/− SEM for 6 humans tested individually in triplicate The PPIA gene was used for normalization of gene expression.
# bovine PBMCs [2] = experiment: Bovine IFN-γ ELISA on stimulated PBMCs; format: cell-based, cattle; details: 72 hours; for IFN-γ secretion by ConA stimulated PBMCs from 2 month old calves: ConA 1 μg/ml, polydA:dT 1 μg/ml; for IFN-γ secretion by ConA stimulated bovine PBMCs: calves <1 year old, ConA 1 μg/ml with or without LPS 100 pg/ml; for IFN-γ secretion by PBMCs from neonatal calves, time course: same 5 calves from 1 to 5 months of age, ConA with or without LPS
# Description: Bovine peripheral blood mononuclear cells were isolated from whole blood samples collected in 9m1 vacutainers containing Heparin anticoagulant. PBMCs were spun and separated using leucosep tubes (Cruinn) and a density gradient histopaque 1077 (Sigma-Aldrich) at a speed of 1200 g for 20 minutes. Red blood cell contamination was eliminated using sterile 0.25% sodium chloride (Baxter) as a lysis buffer. The cells were subsequently washed twice in PBS at a speed of 600 g for 10 minutes to remove impurities.
# Cells were counted using a haemocytometer, microscope and trypan blue (Sigma Aldrich) and seeded at appropriate densities in tissue culture plates (Cruinn) containing media. The cells were incubated at 37° C. at 5% CO2 treated within hours of plating to avoid unwanted cell death.
# When analysing the effects of IL-1β on T cell activation, cells were pre-treated with 250 μg/ml of IL-1 receptor antagonist (IL-1Ra) 40 minutes before stimulation with IL-1β (25 ng/ml). Cells were subsequently stimulated with concanavalin A (1 μg/ml) 1 hour after addition of IL-1β. Similarly, when analysing the effects of polydA:dT on T cell activation, cells were stimulated with polydA:dT (1 μg/ml) 1 hour before ConA treatment (1 μg/ml). LPS (100 pg/ml) primed cells were incubated with YVAD-FMK (10 μm), an inhibitor specific for caspase-1. After 40 minutes, the cells were stimulated with alum (50 μg/ml) for 24 hours and supernatants were then harvested and analysed by ELISA for IL-1β
# Capture antibodies (50 μl/well), diluted in the appropriate buffers, were dispensed into the wells of high binding plates (Greiner Bio-One) and incubated overnight at room temperature or 4° C. For analysis of IL-17, the ELISA plates were pre-coated with capture antibody by the manufacturing before delivery. The wells were washed with PBS/Tween 3 times and the plates were then incubated with 150 μl of blocking buffer for 1 hour at room temperature. The plates were washed again before supernatant (neat or diluted) and recombinant standards were added for 1 hour at room temperature. Following this, the plates were washed and 50 μl of detection antibody was added to the wells for a period of 1 or 2 hours at room temperature. After washing, 50 μl diluted streptavidin-HRP was added to the plate for between 30 minutes and 1 hour. After the final wash, 50 μl of 3,3′-, 5,5′-Tetramethylbenzidine (TMB) substrate was added and the plates were incubated in the dark. The reaction was stopped by addition of 1M sulphuric acid and the absorbance readings were measured at 450 nm using a microtitre plate reader. The cytokine concentrations were calculated using a linear regression standard curve from recombinant cytokines of known concentration. Skanit™ software was used to estimate values.
substance,measurement,setting,value
poly(deoxyadenylic-thymidylic) acid [Poly(dA:dT)],pro-IL-1β expression,"bovine PBMCs [1]; 6 hours, data not shown",enhances pro-IL-1β expression after 6 hours
same,pro-IL-1β (western blot),"bovine PBMCs [1]; 16 hours, with or without LPS 100 pg/ml",pro-IL-1β was evidently expressed in cells stimulated with polydA:dT in the absence of LPS
same,IFN-γ secretion by ConA stimulated PBMCs from 2 month old calves,bovine PBMCs [2]; listed as PolydA:dT,drives enhanced IFN-γ secretion in calves aged <1 year old
same,IFN-γ secretion by ConA stimulated PBMCs from 2 month old calves,bovine PBMCs [2]; listed as poly(dA:dT),strongly enhanced IFN-γ production
same,IFN-γ secretion by ConA stimulated bovine PBMCs,bovine PBMCs [2],promotes type 1 interferon dependent enhancement of interferon gamma production in PBMCs
same,IFN-γ secretion by ConA stimulated bovine PBMCs,bovine PBMCs [2]; listed as Poly (deoxyadenylic-thymidylic) acid,promotes type 1 interferon dependent enhancement of interferon gamma production in PBMCs
same,IFN-γ secretion by ConA stimulated bovine PBMCs,bovine PBMCs [2]; listed as poly (dA:dT),strongly enhanced IFN-γ production by PBMCs from adult (8 months old) animals
same,IFN-γ secretion by ConA stimulated bovine PBMCs,bovine PBMCs [2]; listed as polydA:dT,"increase in IFN-γ secretion; also recorded: increased capacity to secrete IFN-γ in response to polydA:dT, although the difference was only significant when cells were primed with LPS"
same,"IFN-γ secretion by PBMCs from neonatal calves, time course",bovine PBMCs [2]; listed as PolydA:dT,drives enhanced IFN-γ by cells from neonatal calves
same,"IFN-γ secretion by PBMCs from neonatal calves, time course",bovine PBMCs [2]; listed as polydA:dT,overcomes the deficiency in interferon gamma production in neonatal cattle; also recorded: significantly enhanced in response to polydA:dT; also recorded: most evident in the first 2 months of life after which the enhancement was not statistically significant; also recorded: significant increase in IFN-γ secretion at 1 and 2 months in the presence or absence of LPS; also recorded: ability to drive enhanced IFN-γ from PBMCs of calves aged 1-2 months
